Measured values from patent publication US8835476B2, “Synthesis of novel antimicrobials” (priority 2005, dated 2014).
Read-outs that look alike come from different tables or passages of the source.

Experiments:
Format in all cases: cell-based
[1] = test system: Ps. aeruginosa clinical isolates; assay: Broth microdilution MIC, clinical isolate strains (NAUTICA); conditions: Table 4B; each table row is one clinical isolate; unit assumed
Summary of the method: (§1)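 Clinical organisms, randomly drawn NAUTICA urinary isolates, and ATCC reference strains tested by NCCLS M7-A6 broth microdilution at 5×10^5 CFU/ml. Incubation 16 to 20 hours, 35° C, ambient air; MIC defined as lowest concentration without visible growth.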

E. faecalis ATCC 29212 = assay: Broth microdilution MIC, ATCC strains; conditions: Enterococcus faecalis, read-out: MIC (growth inhibition, microdilution method)
Summary of the method: as §1

Pr. stuartii ATCC 33672 = assay: Broth microdilution MIC, ATCC strains; conditions: Providencia stuartii, ATCC33672; Pr. stuartii ATCC 33672; read-out: MIC (growth inhibition, microdilution method)
Summary of the method: as §1

E. aerogenes ATCC 13048 = assay: Broth microdilution MIC, ATCC strains; conditions: Klebsiella aerogenes, ATCC13048; E. aerogenes ATCC 13048; read-out: MIC (growth inhibition, microdilution method)
Summary of the method: as §1

E. coli ATCC 25922 = assay: Broth microdilution MIC, ATCC strains; conditions: Escherichia coli, ATCC25922, E. coli ATCC 25922; read-out: MIC (growth inhibition, microdilution method)
Summary of the method: as §1

K. pneumoniae ATCC 13883 = assay: Broth microdilution MIC, ATCC strains; conditions: Klebsiella pneumoniae, ATCC13883; K. pneumoniae ATCC 13883; read-out: MIC (growth inhibition, microdilution method)
Summary of the method: as §1

P. vulgaris ATCC 49132 = assay: Broth microdilution MIC, ATCC strains; conditions: Proteus vulgaris, ATCC49132; P. vulgaris ATCC 49132; read-out: MIC (growth inhibition, microdilution method)
Summary of the method: as §1

S. marcescens ATCC 8100 = assay: Broth microdilution MIC, ATCC strains; conditions: Serratia marcescens, ATCC8100; S. marcescens ATCC 8100; read-out: MIC (growth inhibition, microdilution method)
Summary of the method: as §1

K. oxytoca ATCC 49131 = assay: Broth microdilution MIC, ATCC strains; conditions: Klebsiella oxytoca, ATCC49131; K. oxytoca ATCC 49131; read-out: MIC (growth inhibition, microdilution method)
Summary of the method: as §1

B. cepacia ATCC 25416 = assay: Broth microdilution MIC, ATCC strains; conditions: Burkholderia cepacia, ATCC25416; B. cepacia ATCC 25416; read-out: MIC (growth inhibition, microdilution method)
Summary of the method: as §1

S. simulans ATCC 27848 = assay: Broth microdilution MIC, ATCC strains; conditions: Staphylococcus simulans, ATCC27848, read-out: MIC (growth inhibition, microdilution method)
Summary of the method: as §1

S. aureus ATCC 29213 = assay: Broth microdilution MIC, ATCC strains; conditions: Staphylococcus aureus, ATCC29213, S. aureus ATCC 29213; read-out: MIC (growth inhibition, microdilution method)
Summary of the method: as §1

[2] = ATCC29212, E. faecalis ATCC 29212
[3] = ATCC29212, E. faecalis, ATCC number not given

SMILES | MIC, PS. AER [1] | MIC (E. faecalis ATCC 29212; [2]) | MIC (E. faecalis ATCC 29212; [3]) | MIC (Pr. stuartii ATCC 33672) | MIC (E. aerogenes ATCC 13048) | MIC (E. coli ATCC 25922) | MIC (K. pneumoniae ATCC 13883) | MIC (P. vulgaris ATCC 49132) | MIC (S. marcescens ATCC 8100) | MIC (K. oxytoca ATCC 49131) | MIC (B. cepacia ATCC 25416) | MIC (S. simulans ATCC 27848) | MIC (S. aureus ATCC 29213)
COC(=O)c1sc(-c2ccc(F)cc2)cc1-c1nnn(C)n1 [DNM-144, 5-(4-fluoro-phenyl)-3-(2-methyl-2H-tetrazol-5-yl)-thiophene-2-carboxylic acid methyl ester] | > 8 µg/mL | > 8 µg/mL | > 8 µg/mL | > 8 µg/mL | > 8 µg/mL | > 8 µg/mL | > 8 µg/mL | > 8 µg/mL | > 8 µg/mL | > 8 µg/mL | > 8 µg/mL | > 8 µg/mL | > 8 µg/mL
COC(=O)c1sc(-c2ccc(F)cc2)cc1-c1nnnn1C [DNM-145, 5-(4-Fluoro-phenyl)-3-(1-methyl-1H-tetrazol-5-yl)-thiophene-2-carboxylic acid methyl ester] | > 4 µg/mL | > 4 µg/mL | > 4 µg/mL | > 4 µg/mL | > 4 µg/mL | > 4 µg/mL | > 4 µg/mL | > 4 µg/mL | > 4 µg/mL | > 4 µg/mL | > 4 µg/mL | > 4 µg/mL | > 4 µg/mL
